Measured values as given in patent US7524844B2, “Dipeptidyl peptidase IV inhibitors, process for their preparation and compositions containing them” (Glenmark Pharmaceuticals S.A., priority 2004, dated 2009).
Structures can show the parent of a compound that is named as a salt.

Molecular target: T1, human recombinant Dipeptidyl peptidase IV enzyme (DPP-IV) (Homo sapiens, UniProt P27487)
T1 construct: purchased R&D Systems Inc. of Minneapolis, Minn
Test: in-vitro DPP-IV assay (cleavage of AMC from Gly-Pro-AMC)
Assay type: biochemical
Conditions: human recombinant DPP-IV, Gly-Pro-AMC substrate, 30° C., 30 minutes; read-out: DPP-IV inhibition using human recombinant DPP-IV enzyme, IC50
Protocol: DPP-IV activity was determined by the cleavage rate of 7-amino-4-methyl coumarin (AMC) from the synthetic substrate Glycyl-Prolyl-AMC. In brief, the assay was conducted by adding 10 ng of human recombinant Dipeptidyl peptidase IV enzyme (DPP-IV, available commercially from R&D Systems Inc. of Minneapolis, Minn.) in 50 μl of the assay buffer (25 mM Tris, pH 7.4, 140 mM NaCl, 10 mM KCl, 1% BSA) to 96 well black flat bottom microtiter plates. The reaction was initiated by adding 50 μl of 100 μM substrate Gly-Pro-AMC. The incubation was carried out in the kinetic mode at 30° C. for 30 minutes. Fluorescence was measured using Fluorostar with an excitation filter of 380 nm and emission filter of 460 nm. Test compounds and solvent controls were added as 1 μl additions. A standard curve of free amino methyl coumarin (AMC) was generated using 0-100 μM AMC in the assay buffer. The curve generated, which was linear was used for the interpolation of catalytic activity.
Test compounds dissolved in DMSO at 5-6 concentrations were tested in duplicate along with the solvent control and blank samples. Percent inhibition was calculated at each concentration with respect to the solvent control sample (no test compound added). […]

T1 sequence (P27487 whole entry): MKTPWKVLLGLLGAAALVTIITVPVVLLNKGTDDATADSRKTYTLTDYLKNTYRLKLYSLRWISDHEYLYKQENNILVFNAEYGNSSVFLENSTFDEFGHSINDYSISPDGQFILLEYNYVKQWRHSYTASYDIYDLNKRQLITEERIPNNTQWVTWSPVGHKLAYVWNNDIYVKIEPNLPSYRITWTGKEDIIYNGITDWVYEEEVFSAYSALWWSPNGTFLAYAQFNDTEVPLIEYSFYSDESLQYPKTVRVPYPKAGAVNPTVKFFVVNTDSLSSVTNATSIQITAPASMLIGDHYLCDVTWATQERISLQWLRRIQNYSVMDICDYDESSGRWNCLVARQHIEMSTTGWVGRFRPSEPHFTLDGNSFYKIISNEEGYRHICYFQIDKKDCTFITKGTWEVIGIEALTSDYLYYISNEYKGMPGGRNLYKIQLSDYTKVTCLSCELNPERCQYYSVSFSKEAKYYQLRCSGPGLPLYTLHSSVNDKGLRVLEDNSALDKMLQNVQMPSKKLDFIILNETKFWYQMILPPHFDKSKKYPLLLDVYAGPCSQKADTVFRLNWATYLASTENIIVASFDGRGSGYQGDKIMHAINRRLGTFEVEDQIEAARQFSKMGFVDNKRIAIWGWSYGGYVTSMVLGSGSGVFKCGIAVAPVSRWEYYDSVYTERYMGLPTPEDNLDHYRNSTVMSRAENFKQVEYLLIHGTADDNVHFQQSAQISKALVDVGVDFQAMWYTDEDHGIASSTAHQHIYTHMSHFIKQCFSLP

Row | IC50 | Compound
1 | 32 nM | N#C[C@@H]1CCCN1C(=O)CN[C@H]1CC[C@@H](CN2CCN(c3ccccc3)CC2)C1 [Example-23, (2S)-1-{2-[(1S,3R)-3-(4-Phenylpiperazinomethyl)cyclopentylamino]acetyl}-pyrrolidine-2-carbonitrile]
2 | 4.19 nM | Cc1ccc(C)n1C[C@H]1CC[C@@H](NCC(=O)N2CCC[C@H]2C#N)C1 [Example-24, (2S)-1-{2-[(3S,1R)-3-(2,5-Dimethyl-1H-1-pyrrolylmethyl)cyclopentylamino}acetyl}-pyrrolidine-2-carbonitrile]
3 | 7.4 nM | Cc1ccc(C)n1C[C@H]1CC[C@@H](NCC(=O)N2C[C@@H](F)C[C@H]2C#N)C1 [Example-25, (2S,4S)-1-{2-[(3S,1R)-3-(2,5-Dimethyl-1H-1-pyrrolylmethyl)cyclopentylamino]-acetyl}-4-fluoropyrrolidine-2-carbonitrile]
4 | 5.94 nM | N#Cc1cccn1C[C@H]1CC[C@@H](NCC(=O)N2CCC[C@H]2C#N)C1 [Example-26, 1-((1S,3R)-3-{2-[(2S)-2-Cyanopyrrolidin-1-yl]-2-oxoethylamino}cyclopentylmethyl)-1H-pyrrole-2-carbonitrile]
5 | 37.3 nM | N#C[C@@H]1CCCN1C(=O)CN[C@H]1CC[C@@H](Cn2cccn2)C1 [Example-28, (2S)-1-{2-[(1S,3R)-3-(1H-Pyrazol-1-ylmethyl)cyclopentylamino]acetyl}pyrrolidine-2-carbonitrile]
6 | 11.2 nM | N#C[C@@H]1CCCN1C(=O)CN[C@@H]1CC[C@H](Cn2ccnc2)C1 [Example-29, (2S)-1-{2-[(3S,1R)-3-(1H-1-Imidazolylmethyl)cyclopentylamino]acetyl}pyrrolidine-2-carbonitrile]
7 | 9.36 nM | N#Cc1ncn(C[C@H]2CC[C@@H](NCC(=O)N3CCC[C@H]3C#N)C2)c1C#N [Example-34, 1-((1S,3R)-3-{2-[(2S)-2-Cyanopyrrolidin-1-yl]-2-oxoethylamino}cyclopentylmethyl)-1H-4,5-imidazoledicarbonitrile]
8 | 68.3 nM | N#C[C@@H]1CCCN1C(=O)CN[C@@H]1C=C[C@H](Cn2cncn2)C1 [Example-35]
9 | 5.1 nM | N#C[C@@H]1CCCN1C(=O)CN[C@@H]1CC[C@H](Cn2cncn2)C1 [Example-37, (2S)-1-{2-[(3S,1R)-3-(1H-1,2,4-Triazol-1-ylmethyl)cyclopentylamino]acetyl}-pyrrolidine-2-carbonitrile]
10 | 5.05 nM | N#C[C@@H]1CCCN1C(=O)CN[C@@H]1CC[C@H](Cn2cncn2)C1 [Example-39, (2S)-1-{2-[(3S,1R)-3-(1H-1,2,4-Triazol-1-ylmethyl)cyclopentylamino]acetyl}-pyrrolidine-2-carbonitrile maleate]
11 | 12.5 nM | N#C[C@@H]1CCCN1C(=O)CN[C@H]1CC[C@@H](Cn2cncn2)C1 [Example-40, (2S)-1-{2-[(3R,1S)-3-(1H-1,2,4-Triazol-1-ylmethyl)cyclopentylamino]acetyl}-pyrrolidine-2-carbonitrile]
12 | 1.61 nM | N#C[C@@H]1C[C@H](F)CN1C(=O)CN[C@@H]1CC[C@H](Cn2cncn2)C1 [Example-42, (2S,4S)-1-{2-[(3S,1R)-3-(1H-1,2,4-Triazol-1-ylmethyl)cyclopentylamino]acetyl}-4-fluoropyrrolidine-2-carbonitrile]
13 | 6.25 nM | N#C[C@@H]1C[C@H](F)CN1C(=O)CN[C@@H]1CC[C@H](Cn2cncn2)C1 [Example-43, (2S,4S)-1-{2-[(3S,1R)-3-(1H-1,2,4-Triazol-1-ylmethyl)cyclopentylamino]acetyl}-4-fluoropyrrolidine-2-carbonitrile hydrochloride]
14 | 3.73 nM | N#C[C@@H]1C[C@H](F)CN1C(=O)CN[C@@H]1CC[C@H](Cn2cncn2)C1 [Example-44, (2S,4S)-1-{2-1(3S,1R)-3-(1H-1,2,4-Triazol-1-ylmethyl)cyclopentylamino]acetyl}-4-fluoropyrrolidine-2-carbonitrile methanesulfonate]
15 | 4.63 nM | N#C[C@@H]1C[C@H](F)CN1C(=O)CN[C@@H]1CC[C@H](Cn2cncn2)C1 [Example-45, (2S,4S)-1-{2-[(3S,1R)-3-(1H-1,2,4-Triazol-1-ylmethyl)cyclopentylamino]acetyl}-4-fluoropyrrolidine-2-carbonitrile oxalate]
16 | 4.37 nM | N#C[C@@H]1C[C@H](F)CN1C(=O)CN[C@@H]1CC[C@H](Cn2cncn2)C1 [Example-46, (2S,4S)-1-{2-[(3S,1R)-3-(1H-1,2,4-Triazol-1-ylmethyl)cyclopentylamino]acetyl}-4-fluoropyrrolidine-2-carbonitrile succinate]
17 | 3.22 nM | N#C[C@@H]1C[C@H](F)CN1C(=O)CN[C@@H]1CC[C@H](Cn2cncn2)C1 [Example-49, (2S,4S)-1-{2-[(3S,1R)-3-(1H-1,2,4-Triazol-1-ylmethyl)cyclopentylamino]acetyl}-4-fluoropyrrolidine-2-carbonitrile salicylate]

Row | IC50 | Compound
18 | 3.54 nM | N#C[C@@H]1C[C@H](F)CN1C(=O)CN[C@H]1CC[C@@H](Cn2cncn2)C1 [Example-52, (2S,4S)-1-{2-[(1S,3R)-3-(1H-1,2,4-Triazol-1-ylmethyl)cyclopentylamino]acetyl}-4-fluoropyrrolidine-2-carbonitrile]
19 | 5.12 nM | N#C[C@@H]1C[C@H](F)CN1C(=O)CN[C@@H]1CC[C@@H](Cn2cncn2)C1 [Example-53, (2S,4S)-4-Fluoro-1-{2-[(1R,3R)-3-(1H-1,2,4-Triazol-1-ylmethyl)cyclopentylamino]-acetyl}pyrrolidin-2-carbonitrile]
20 | 78.9 nM | N#C[C@@H]1CCCN1C(=O)CN[C@H]1CC[C@@H](Cn2nccn2)C1 [Example-56, (2S)-1-{2-[(1S,3R)-3-(2H-1,2,3-Triazol-2-ylmethyl)cyclopentylamino]acetyl}-pyrrolidine-2-carbonitrile]
21 | 5.88 nM | N#C[C@@H]1C[C@H](F)CN1C(=O)CN[C@H]1CC[C@@H](Cn2ccnn2)C1 [Example-57]
22 | 10.6 nM | N#C[C@@H]1C[C@H](F)CN1C(=O)CN[C@H]1CC[C@@H](Cn2nccn2)C1 [Example-58, (2S,4S)-1-{2-[(1S,3R)-3-(2H-1,2,3-Triazol-2-ylmethyl)cyclopentylamino]acetyl}-4-fluoropyrrolidine-2-carbonitrile]
23 | 9.12 nM | N#C[C@@H]1CCCN1C(=O)CN[C@@H]1CC[C@H](Cn2cnnn2)C1 [Example-59, (2S)-1-{2-[(3S,1R)-3-[1H-1 ,2,3,4-Tetrazol-1-ylmethyl]cyclopentylamino]acetyl}-pyrrolidine-2-carbonitrile]
24 | 4.12 nM | N#C[C@@H]1CCCN1C(=O)CN[C@@H]1CC[C@H](Cn2cnnn2)C1 [Example-60, (2S)-1-{2-[(3S,1R)-3-(1H-1,2,3,4-Tetrazol-1-ylmethyl)cyclopentylamino]acetyl}-pyrrolidine-2-carbonitrile maleate]
25 | 11.4 nM | N#C[C@@H]1CCCN1C(=O)CN[C@H]1CC[C@@H](Cn2cnnn2)C1 [Example-61, (2S)-1-{2-[(1S,3R)-3-(1H-1,2,3,4-Tetrazol-1-ylmethyl)cyclopentylamino]acetyl}-pyrrolidine-2-carbonitrile]
26 | 8.73 nM | N#C[C@@H]1CCCN1C(=O)CN[C@@H]1CC[C@H](Cn2nnc(-c3ccc(F)cc3)n2)C1 [Example-62, (2S)-1-(2-{(3S,1R)-3-[5-(4-Fluorophenyl)-2H-1,2,3,4-tetrazol-2-ylmethyl]cyclo-pentylamino}acetyl)pyrrolidine-2-carbonitrile]
27 | 21.9 nM | N#C[C@@H]1CCCN1C(=O)CN[C@@H]1CC[C@H](CN2CCc3ccccc32)C1 [Example-63]
28 | 5.81 nM | N#Cc1cn(C[C@H]2CC[C@@H](NCC(=O)N3C[C@@H](F)C[C@H]3C#N)C2)c2ccccc12 [Example-64, 1-((1S,3R)-3-{2-[(2S,4S)-2-Cyano-4-fluoropyrrolidin-1-yl]-2-oxoethylamino}cyclo-pentylmethyl)-1H-3-indolecarbonitrile]
29 | 13.2 nM | N#C[C@@H]1CCCN1C(=O)CN[C@@H]1CC[C@H](CN2Cc3ccccc3C2)C1 [Example-65, (2S)-1-{2-[(3S,1R)-3-(2,3-Dihydro-1H-2-isoindolylmethyl)cyclopentylamino]acetyl}-pyrrolidine-2-carbonitrile]
30 | 22.3 nM | N#C[C@@H]1CCCN1C(=O)CN[C@H]1CC[C@@H](Cn2ncc3ccccc32)C1 [Example-67, (2S)-1-{2-[(1S,3R)-3-(1H-Indazol-1-ylmethyl)cyclopentylamino]acetyl}pyrrolidin-2-carbonitrile]
31 | 19.2 nM | N#C[C@@H]1CCCN1C(=O)CN[C@H]1CC[C@@H](Cn2cc3ccccc3n2)C1 [Example-68, (2S)-1-{2-[(1S,3R)-3-(2H-Indazol-2-ylmethyl)cyclopentylamino]acetyl}pyrrolidin-2-carbonitrile]
32 | 4.45 nM | N#C[C@@H]1CCCN1C(=O)CN[C@@H]1CC[C@H](Cn2cnc3ccccc32)C1 [Example-69, (2S)-1-{2-[(3S,1R)-3-(1H-Benzo[d]imidazol-1-ylmethyl)cyclopenylamino]acetyl}-pyrrolidine-2-carbonitrile]
33 | 3.43 nM | N#C[C@@H]1CCCN1C(=O)CN[C@@H]1CC[C@H](Cn2nnc3ccccc32)C1 [Example-70, (2S)-1-{2-[(3S,1R)-3-(2H-Benzo[d][1,2,3]triazol-1-ylmethyl)cyclopentylamino]-acetyl}pyrrolidine-2-carbonitrile]
